The subject of series [1] is liver cancer cell line Huh7. Briefly: Cytotoxicity assay (CellTiter Glo), Huh7. Format: cell-based. To be noted: Homo sapiens, Huh-7, 72 h or 120 h incubation, Compound No. 1 tested as TEA salt. How it is done: (§1) Cytotoxicity of the test compounds were determined for multiple cell lines including gastric cancer cell lines NCI-N-87-luc and MKN45; liver cancer cell lines HepG2, Hep3B, and Huh7; pancreatic cell lines MIAPACA-2 and PANC-1; and colon cancer cell lines HT-29 and HCT-116.
(§2) Test compounds were prepared as 10 mM stock solutions. 5-FU, the control compound, was also prepared as a 10 mM stock solution. 45 μL of stock solution was transferred to a 384 polypropylene plate. The test and control compounds were then serially diluted 3 fold 10 times by transferring 15 μL compound solution into 30 μL DMSO by using TECAN (EVO200) liquid handler. […]
(§3) For each cell line assayed, cells were grown in a flask and then were harvested from the flask into cell culture medium. The cell number was counted and the cells were diluted with cell culture medium to the 2.5*10^4 cells/mL. […]
(§4) The cell culture plates were covered with a lid, placed at room temperature for 30 min without shaking, and transferred into a 37° C. […] On the desired day, cytotoxicity of the compounds was detected using CellTiter Glo. […] 40 μL of CellTiter-Glo reagent was added into each well to be detected (at 1:1 to culture medium). The plates were placed at room temperature for 30 min and then luminescence was detected using an EnSpire plate reader. […]
(In general: Cellular ATP, detected with luciferase, serves as a proxy for viable cell number.)

In series [2] the test system is liver cancer cell line HepG2. Briefly: Cytotoxicity assay (CellTiter Glo), HepG2. As to conditions: Homo sapiens, 72 h or 120 h incubation, Compound No. 1 tested as TEA salt. It counts as cell-based. The method, then: as §1, §2, §3, §4
Series [3] deals with pancreatic cell line PANC-1. Briefly: Cytotoxicity assay (CellTiter Glo), PANC-1. It counts as cell-based. To be noted: Homo sapiens, 72 h or 120 h incubation, Compound No. 1 tested as TEA salt. The method, then:
as §1, §2, §3, §4

Series [4] concerns pancreatic cell line MIAPACA-2. As to the kind of experiment: Cytotoxicity assay (CellTiter Glo), MIAPACA-2. It counts as cell-based. As to conditions: Homo sapiens, MIA PaCa-2, 72 h or 120 h incubation, Compound No. 1 tested as TEA salt. How it is done:
as §1, §2, §3, §4

Series [5] deals with colon cancer cell line HCT-116. Briefly: Cytotoxicity assay (CellTiter Glo), HCT-116. It counts as cell-based. To be noted: Homo sapiens, 72 h or 120 h incubation, Compound No. 1 tested as TEA salt. The method, then:
as §1, §2, §3, §4

The test system of series [6] is gastric cancer cell line MKN45. Briefly: Cytotoxicity assay (CellTiter Glo), MKN45. It counts as cell-based. As to conditions: Homo sapiens, MKN-45, 72 h or 120 h incubation, Compound No. 1 tested as TEA salt. The method, then:
as §1, §2, §3, §4

Series [7] concerns liver cancer cell line Hep3B. Briefly: Cytotoxicity assay (CellTiter Glo), Hep3B. Format: cell-based. As to conditions: Homo sapiens, 72 h or 120 h incubation, Compound No. 1 tested as TEA salt. How it is done: as §1, §2, §3, §4
In series [8] the target is T1, dihydropyrimidine dehydrogenase (DPD) (Homo sapiens, UniProt Q12882).
T1 sequence (Q12882 4-1025): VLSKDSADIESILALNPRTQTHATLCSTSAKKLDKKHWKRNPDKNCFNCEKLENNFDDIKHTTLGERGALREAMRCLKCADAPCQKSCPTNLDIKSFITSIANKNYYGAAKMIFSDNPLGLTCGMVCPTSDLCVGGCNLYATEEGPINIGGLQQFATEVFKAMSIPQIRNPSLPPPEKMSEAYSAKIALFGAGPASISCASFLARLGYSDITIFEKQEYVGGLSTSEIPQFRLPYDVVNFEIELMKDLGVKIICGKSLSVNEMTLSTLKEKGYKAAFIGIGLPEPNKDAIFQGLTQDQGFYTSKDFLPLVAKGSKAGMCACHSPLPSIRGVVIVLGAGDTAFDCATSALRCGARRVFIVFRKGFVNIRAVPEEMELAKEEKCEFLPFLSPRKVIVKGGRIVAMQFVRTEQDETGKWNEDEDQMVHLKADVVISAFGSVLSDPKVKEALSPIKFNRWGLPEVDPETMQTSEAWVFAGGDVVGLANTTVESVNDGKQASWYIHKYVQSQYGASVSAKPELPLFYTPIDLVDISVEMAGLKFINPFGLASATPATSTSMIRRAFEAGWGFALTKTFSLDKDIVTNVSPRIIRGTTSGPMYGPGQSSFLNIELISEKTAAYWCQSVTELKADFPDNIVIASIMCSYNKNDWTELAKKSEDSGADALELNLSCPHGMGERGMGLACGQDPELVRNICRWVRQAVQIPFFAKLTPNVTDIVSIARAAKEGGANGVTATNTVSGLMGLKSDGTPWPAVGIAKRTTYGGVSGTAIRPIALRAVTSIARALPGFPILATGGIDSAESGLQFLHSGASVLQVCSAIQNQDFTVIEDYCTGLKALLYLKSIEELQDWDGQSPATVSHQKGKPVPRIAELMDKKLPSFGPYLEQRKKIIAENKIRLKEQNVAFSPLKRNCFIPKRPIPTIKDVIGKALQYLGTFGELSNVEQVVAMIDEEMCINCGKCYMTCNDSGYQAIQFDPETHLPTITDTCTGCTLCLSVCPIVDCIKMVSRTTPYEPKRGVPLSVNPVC
As to conditions: background statement; cited from earlier work.

Series [9] has as its system gastric cancer cell line NCI-N-87-luc. Briefly: Cytotoxicity assay (CellTiter Glo), NCI-N-87-luc. Format: cell-based. As to conditions: 72 h or 120 h incubation, Compound No. 1 tested as TEA salt. How it is done:
as §1, §2, §3, §4

In series [10] the test system is colon cancer cell line HT-29. Briefly: Cytotoxicity assay (CellTiter Glo), HT-29. As to conditions: Homo sapiens, 72 h or 120 h incubation, Compound No. 1 tested as TEA salt. It counts as cell-based. The method, then:
as §1, §2, §3, §4

SMILES strings stand for the structures. Counter-ions that a name gives are not always drawn.

For orientation: CC50 means the concentration that lowers cell viability or growth by half. As to `O=c1[nH]cc(F)c(=O)[nH]1` [5-FU, 5-Fluorouracil], the CC50 in series [1] was 7300 nM; in series [2], 1740 nM; in series [3], 8260 nM; in series [4], 13100 nM; in series [5] it was 6800 nM; in series [6], 1680 nM. In addition, the CC50 in [7] was determined as 3670 nM; in series [9] it was 3990 nM; in series [10], 14800 nM. In [8], the “fraction catabolized by dihydropyrimidine dehydrogenase (DPD) to pharmacodynamically inactive metabolites” value is on record as 80-85%.
`CC(C)OC(=O)OCn1c(=O)c(F)cn([C@H]2C[C@@H]3OP(=O)(O)OC[C@H]3O2)c1=O` [Compound No. 1, (4aR,6R,7aS)-6-(5-fluoro-3-(((isopropoxycarbonyl)oxy)methyl)-2,4-dioxo-3,4-dihydropyrimidin-1(2H)-yl)tetrahydro-4H-furo[3,2-d][1,3,2]dioxaphosphinin-2-olate 2-oxide triethylamine salt]: the half-maximal cytotoxic concentration (CC50) in [1] is 13 nM; in series [2], 314 nM; in series [3], 706 nM; in series [4] it was 60 nM; in series [5] it was 411 nM; in [6] it was 21 nM. The CC50 in series [7] stood at 45 nM; in [9], 515 nM; in series [10] it was 15 nM.

The values above are taken from patent publication US20220241312A1, “COMPOUNDS FOR TREATING CANCER” (Tems Pharmaceuticals, Inc., priority 2019, published 2022).
